# In BindingDB's records for doi:10.1021/jm0702579 (National Cancer Institute-Frederick, 2007):
# Test: Ratio of Ki for mouse wild type C1b domain of PKCdelta to Ki for mouse PKCdelta C1b Q27E mutant
compound,measurement,value
"CCCC(=O)O[C@@H]1[C@@H](C)[C@@]2(O)[C@@H](C=C(CO)C[C@]3(O)C(=O)C(C)=C[C@@H]23)[C@@H]2C(C)(C)[C@]12OC(=O)CCC [(1aR,1bS,4aR,7aS,7bS,8R,9R,9aS)-4a,7b-dihydroxy-3-(hydroxymethyl)-1,1,6,8-tetramethyl-5-oxo-1,1a,1b,4,4a,5,7a,7b,8,9-decahydro-9aH-cyclopropa[3,4]benzo[1,2-e]azulene-9,9a-diyl dibutanoate]",Ki,19 nM
